In patent publication US8071575B2, “Methods and compounds for the targeted delivery of agents to bone for interaction therewith” (priority 2007, dated 2011):
Entries after “also recorded” stand apart in the source; their conditions may differ.

Assays:
[1] = test system: SUM1315 human breast cancer cells; assay: Anti-cancer effect: colony formation assay; assay type: cell-based; details: 0.05, 0.1, 0.5, 1, 5, and 10 μM, 10 days
Description: Anti-Cancer Effect: Colony formation assay. The anti-cancer effect of compounds including a bone active portion (RA) derived from an anti-cancer agent was tested. SUM1315 human breast cancer cells (derived from a clinical metastatic nodule) were seeded in 6 well plates at 5000 cells/well in 2 ml of medium. Cells were allowed to adhere overnight prior to drug treatment. Compounds of the presently-disclosed subject matter including a bone active portion (RA) derived from an anti-cancer agent, or the free anti-cancer agent, were added to the cells at concentrations of 0.05, 0.1, 0.5, 1, 5, and 10 μM and cells were allowed to grow at 37° C. for 10 days. In addition, untreated and vehicle (0.1% DMSO) treated wells were included as controls. After 10 days of treatment, medium was removed from each well and cells were subsequently washed with water. Cells were then fixed in 10% formaldehyde for 10 minutes, washed with water and then stained with 0.5% crystal violet for 5 minutes. Colonies of cells were subsequently counted under the microscope in three separate frames. Three independent experiments were performed and the results are an average of the three experiments. Images were obtained from a representative well for each concentration.

[2] = test system: SUM1315 human breast cancer cells; assay: Anti-cancer effect: cell proliferation (MTT) assay; assay type: cell-based; details: 0.05, 0.1, 0.5, 1, 5, and 10 μM, days 1-6
Excerpt: Anti-Cancer Effect: Cell Proliferation Assay. The colorometric MTT assay is based on the cleavage of a yellow MTT tetrazolium salt to form purple formazan crystals by the mitochondria of metabolically active and viable cells. The formazan crystals are insoluble in aqueous solution but can be dissolved in acid and quantified using a spectrophotometer. The number of living and viable cells in a sample directly correlates to the amount of purple formazan crystals formed. SUM1315 human breast cancer cells were seeded in triplicate in 96 well plates at 1000 cells/well and were allowed to adhere overnight prior to drug treatment. Compounds of the presently-disclosed subject matter including a bone active portion (RA) derived from an anti-cancer agent, or the free anti-cancer agent, were added to the cells at concentrations of 0.05, 0.1, 0.5, 1, 5, and 10 μM and cells were allowed to grow at 37° C. for 1, 2, 3, 4, 5, or 6 days. In addition, untreated and vehicle (0.1% DMSO) treated wells were included at each time point as controls. Following treatment the MTT assay was subsequently performed and the absorbance at 490 nm was recorded. Three independent experiments were performed and the results were averaged.

[3] = Hydroxyapatite (HA) Binding Assay; details: 10^−5 M analyte, 50 mM Tris-HCl pH 7.4, 1% DMSO; adjusted such that tetracycline = 100
Description: A Hydroxyapatite (HA) Binding Assay is used to determine whether compounds have an affinity for bone. Compounds of the presently-disclosed subject matter having a Bone Targeting Portion (RT) are studied using the HA Binding Assay. A 10^−3 M solution of each analyte was made in 100% dimethylsulfoxide (DMSO). A 100 fold dilution was then made to form a 10^−5 M solution in 50 mM Tris-HCl buffer, pH 7.4, 1% DMSO. Tetracycline was used as a reference analyte and approximately 50% was adsorbed to HA at the concentration of 10^−5 M. The HA slurry was 0.5 g/100 mL 50 mM Tris-HCl buffer, 1% DMSO.
For each analyte, two samples were prepared. For one sample, 1 mL of 10^−5 M analyte and 100 μL 50 mM Tris-HCl buffer, 1% DMSO was pipetted into a microcentrifuge tube. For the second sample, 1 mL of 10^−5 M analyte and 100 μL of the HA slurry was pipetted into a microcentrifuge tube. The samples were mixed gently by inversion for 4 minutes and then centrifuged at 12,000 g for 3 minutes to sediment the HA contained in those samples. The supernatant was transferred to another microcentrifuge tube.
An electronic spectral scan (ultraviolet-visible) from 220-520 nm was obtained for each analyte using a Varian Cary 300 Bio Scan. The blank was 50 mM Tris-HCl buffer, 1% DMSO. The wavelength of maximum absorbance (λmax) was determined, and the extinction coefficient (ε) was calculated using the Beer-Lambert Law.
The absorbance of the samples incubated with HA was measured at λmax, and the molar concentration of the analyte was then determined using the Beer-Lambert Law and the previously calculated extinction coefficient. The fraction adsorbed to HA for each sample was subsequently calculated.

[4] = test system: OVX rats; assay: Bone mechanical competence indentation test; assay type: in vivo, Sprague-Dawley female rats; details: present-tense example, no data or figure
Description: (§1) Animals. Six month old, bilaterally ovariectomized (OVX) or sham operated Sprague-Dawley female rats (Harlan Laboratories, Indianapolis, Ind.) were maintained at the University of Louisville Research Resources Center at 22° C. with a 12-h light/dark cycle and ad libitum access to tap water and rodent chow (Purina Laboratory Rodent Diet 5001). All animal procedures were approved by the Institutional Animal Care and Use Committee, which is certified by the American Association for Accreditation of Laboratory Animal Care.
(§2) In vivo experiments were conducted in order to investigate the efficacy of compounds of the presently-disclosed subject matter. In all of the experiments, OVX and sham operated rats were randomly divided into groups of 5-7 animals. In all of the studies experimental groups included: i) Sham-operated control (euthanized six weeks post surgery as a pretreatment control), ii) OVX control (euthanized six weeks post surgery as a pretreatment control), iii) Sham control receiving vehicle, iv) OVX control receiving vehicle, v) OVX receiving 17-ethinyl estradiol (equimolar concentration with a selected test compound), vi) OVX receiving alendronate (1.6 mg/kg), and vii) OVX receiving parathyroid hormone 1-34 (PTH) ([…]). 17-ethinyl estradiol (17 EE) is a free estrogenic agent known to be orally active, and can serve as an example of an anti-catabolic agent. Alendronate (Alen) is a bisphosphonate that is currently used to treat osteoporosis (e.g., Fosamax®, Merck & Co., Inc,), and can serve as an example of an anti-catabolic agent. Parathyroid hormone 1-34 (PTH) is an agent that can serve as an example of an anabolic agent. All compounds and vehicle (1% DMSO in corn oil) were administered three times per week orally by gavage except for PTH which was administered via a subcutaneous injection in a volume of 0.5 ml/kg body mass thrice per week. Compound administration was initiated 6 weeks following surgery and lasted for 6 weeks (18 doses total).
(§3) Compounds of the presently-disclosed subject matter were orally administered to OVX rats at various doses. As indicated above all BTE's were administered three times per week for 6 weeks.
(§4) Following 6 weeks of treatment, blood was obtained from each animal via cardiac puncture following an overnight fast and animals were subsequently euthanized via carbon dioxide asphyxiation. Blood was centrifuged immediately and the obtained serum samples were aliquoted and stored at −70° C. prior to analysis. Uteri were removed and fresh weights were obtained. Uterine masses were normalized to body mass at the end of the experiment. The left and right femora and left and right tibiae were subsequently collected from each animal, cleaned of soft tissue, and stored in saline at 4° C. prior to analysis.
Bone Mechanical Competence Indentation Test. After sacrifice, the left tibiae were trimmed to expose the cancellous bone of the proximal tibial metaphysis and an indentation test was performed by advancing a flat-tipped cylindrical post (1.5 mm diameter) axially into the cut surface to measure the compressive strength of the cancellous bone structure.

[5] = test system: OVX rats; assay: RatLaps ELISA for C-telopeptide fragments of collagen type I (CTX-I) in serum; assay type: in vivo, Sprague-Dawley female rats; details: Formula 125 at 1000 μg/kg, 17-ethinyl estradiol equimolar, alendronate 1.6 mg/kg
Description: RatLaps™ ELISA for C-Telopeptide Fragments of Collagen Type I (CTX-I). […] Bone resorption (CTX-I) was quantitatively assessed in rat serum using the commercially available RatLaps™ ELISA KIT from Nordic Bioscience Diagnostics A/S (Herlev, Denmark) as recommended by the manufacturer.

[6] = test system: ICR Swiss mice; assay: Stimulation of periosteal bone formation in a mouse calvarial injection model; assay type: in vivo; details: present-tense example, no data or figure
Description: Stimulation of Periosteal Bone Formation in a Mouse Calvarial Injection Model. The anabolic (bone formation) of compounds of the presently-disclosed subject matter are evaluated in the mouse calvarial injection model. Briefly, 4-week-old ICR Swiss mice are injected subcutaneously over the surface of the calvariae with compounds of the presently-disclosed subject matter at concentrations of 0, 1, 3, and 10 mg/kg/day for 5 days (twice a day). Microtubule inhibitor TN-16 (5 mg/kg/day for 2 days, twice a day) are used as a positive control. Mice are sacrificed two weeks after the injections are completed. Dissected calvarial samples are fixed in 10% phosphate-buffered formalin for 2 days, decalcified in 10% EDTA for 2 weeks and then embedded in paraffin. Histological sections are cut and stained with H&E and orange G. New woven bone formation (new bone area) is quantified by histomorphometry using the OsteoMeasure system (OsteoMetrics Inc., Atlanta, Ga.).

[7] = test system: OVX rats; assay: Regional femoral density via Archimedes' Principle; assay type: in vivo, Sprague-Dawley female rats; details: oral 10, 100, or 1000 μg/kg, three times per week for 6 weeks
Description: as §1, §2, §3
Following 6 weeks of treatment, blood was obtained from each animal via cardiac puncture following an overnight fast and animals were subsequently euthanized via carbon dioxide asphyxiation. […]
Regional Femoral Density via Archimedes' Principle. […] Briefly, each femur was measured with a Cen-Tech Digital Caliper and a cut was made from each end at 20% of the length of the femur plus half the width of the blade. Subsequently, the bone marrow was washed out of the femoral diaphysis and the Archimedes density for each of the three femoral regions was determined as described above.

[8] = test system: OVX rats; assay: Volume fraction, ex vivo micro-computed tomography of tibia; assay type: in vivo, Sprague-Dawley female rats; details: OVX rats, oral 10, 100, or 1000 μg/kg
Description: as §1, §2, §3, §4
Volume Fraction—Ex vivo micro-computed tomography (μCT). Volume fraction is a representative value for the amount of bone that occupies a given volume or space. High resolution image data were collected using a customized micro-CT system (ACTIS 150/225 system, BIR Inc., Lincolnshire, Ill.). The metaphysis of each right tibia was scanned over a three millimeter range and three-dimensional images were reconstructed. Data were subsequently processed to reveal the volume fraction (BV/TV) occupied by trabecular (cancellous) bone tissue, cortical bone tissue, and whole bone tissue. The resulting data provides information regarding the density of whole bone, cortical bone, and trabecular bone.

[9] = test system: OVX rats; assay: Quantitative determination of lipid metabolism (total cholesterol, HDL, LDL) in rat serum; assay type: in vivo, Sprague-Dawley female rats; details: rat, in vivo
Description: as §1, §2, §4
Quantitative Determination of Lipid Metabolism (Total Cholesterol HDL, and LDL) in Rat Serum. Total cholesterol, high-density lipoprotein (HDL), and low-density lipoprotein (LDL) were quantitatively determined in the serum of rats in order to evaluate the extraosseous effects of estrogen treatment on lipid metabolism. Commercially available kits from Wako Diagnostics (Richmond, Va.) were used for the evaluations as recommended by the manufacturer.

[10] = test system: OVX rats; assay: Uterine mass and uterine mass to body weight ratio in OVX rats; assay type: in vivo, Sprague-Dawley female rats; details: OVX rats, oral 10, 100, or 1000 μg/kg; compared to animals treated with 17-ethinyl estradiol
Description: as §1, §2, §3, §4
Uterine Mass and Body Weight. […] Uterine mass can be used to as a measure of estrogenic effect occurring in a tissue outside the bone in response to treatment with a test compound or composition. Generally, a lower uterine mass can be associated with a decreased risk of adverse side effects associated with the test compound or composition. A ratio of uterine mass to body weight can be used to correct for any increase in uterine size attributable to the relative size of the individual animal. Body weight and/or uterine mass also serve as an indirect measures of toxicity of a test compound.

SMILES | colony formation [1] | cell proliferation (MTT) [2] | Binding Index (binding to hydroxyapatite) [3] | bone strength (indentation test) [4] | production of CTX-I (bone resorption marker) in serum [5] | new bone area (calvarial injection model) [6] | regional bone density (left femur) [7] | bone density from three-dimensional micro-CT images [8] | trabecular volume fraction ([8]; ex vivo micro-CT) | lipid metabolism (total cholesterol, HDL, LDL in serum) [9] | ratio of uterine mass to body weight [10]
COc1cccc2c1C(=O)c1c(O)c3c(c(O)c1C2=O)C[C@@](O)(C(=O)CO)C[C@H]3OC1C[C@H](NC(=O)CCCC(=O)NCCOCCOCC(=O)Nc2ccc(OC)c(C(N)=O)c2O)[C@H](O)[C@H](C)O1 (stereo partly drawn) [Formula 138] | dose-responsive decrease in colony formation | dose-responsive decrease in cell proliferation | 60 |  |  |  |  |  |  |  | 
CC12CCC3c4ccc(O)cc4CCC3C1CC[C@H]2OCCC(=O)NCCOCCOCC(=O)Nc1ccc(OCc2ccccc2)c(C(N)=O)c1O (stereo partly drawn) [Formula 125] |  |  | 160 | increase bone strength | do not inhibit production of CTX-I | increase new bone area | increased regional bone densities, as compared to the OVX animals; also recorded: increased regional bone densities, as compared to the Sham animals | increase in bone density | increased, as compared to OVX animals | limited or no effect | lower
